Reference: patent publication US20060194837A1, “Tetrahydroisoquinoline compounds” (priority 2004, published 2006)
Like-named read-outs stand apart in the source and are kept apart here.

Columns and labels:
human H3 receptor [1] = target: T1, human H3 receptor (Homo sapiens, UniProt Q9Y5N1); assay: Cyclic AMP accumulation (β-galactosidase reporter, Schild analysis); type: cell-based; settings: histamine agonist, forskolin 5 μM, Schild regression of pEC50 values
T1 construct: expressed in transfected cells
Protocol: Sublines of SK-N-MC cells were created that expressed a reporter construct and the human H3 receptor. The reporter gene (β-galactosidase) is under the control of multiple cyclic AMP responsive elements. In 96-well plates, histamine was added directly to the cell media followed 5 min later by an addition of forskolin (5 μM final concentration). When appropriate, antagonists were added 10 min prior to agonist addition. After a 6-h incubation at 37° C., the media was aspirated and the cells washed with 200 μL of phosphate-buffered saline followed by a second aspiration. Cells were lysed with 25 μL 0.1× assay buffer (10 mM Na-phosphate, pH 8, 0.2 mM MgSO4, 0.01 mM MnCl2) and incubated at rt for 10 min. […] Color was developed using 25 μL of 1 mg/mL substrate solution (chlorophenolred β-D galactopyranoside; Roche Molecular Biochemicals, Indianapolis, In.).

Rat SERT = target: T2, Rat SERT (Rattus norvegicus, UniProt P31652); assay: Rat brain SERT binding ([3H]-citalopram displacement); settings: rat brain membranes without cerebellum, 0.6 nM [3H]-citalopram, 60 min at 25° C.
T2 construct: A rat brain without cerebellum (Zivic Laboratories, Inc.—Pittsburgh, Pa.) was homogenized; tissue Zivic Laboratories, Inc; host or cells: rat brain without cerebellum, membranes
Protocol: The supernatant was removed and re-centrifuged at 15,000 rpm for 30 min. […] Membranes were incubated with 0.6 nM [^3H]-Citalopram plus/minus test compounds for 60 min at 25° C. and harvested by rapid filtration over GF/C glass fiber filters (pretreated with 0.3% polyethylenimine) followed by four washes with ice-cold buffer.

human SERT = target: T3, human SERT (Homo sapiens, UniProt P31645); assay: Human SERT binding (3H-citalopram displacement); settings: HEK293 membranes expressing human SERT, rt 1 h
T3 construct: expressed in transfected cells; host or cells: HEK293 membranes
Protocol: Homogenized HEK293 (Human Embryonic Kidney) membranes expressing the human SERT were incubated with ^3H-citalopram (SERT) at rt for 1 h in 50 mM Tris, 120 mM NaCl, 5 mM KCl (pH 7.4). […] The membranes were washed and the radioactivity was counted as above.

human H3 receptor [2] = target: T1, human H3 receptor; assay: H3 receptor binding (N-[3H]-α-methylhistamine displacement); settings: membranes of SK-N-MC cells expressing cloned human H3 receptor, 0.8 nM N-[3H]-α-methylhistamine, 60 min at 25° C.
[3] = SK-N-MC cells expressing human H3 receptor and CRE-β-galactosidase reporter, read-out: pA2 (converted)

T1 sequence (Q9Y5N1 whole entry): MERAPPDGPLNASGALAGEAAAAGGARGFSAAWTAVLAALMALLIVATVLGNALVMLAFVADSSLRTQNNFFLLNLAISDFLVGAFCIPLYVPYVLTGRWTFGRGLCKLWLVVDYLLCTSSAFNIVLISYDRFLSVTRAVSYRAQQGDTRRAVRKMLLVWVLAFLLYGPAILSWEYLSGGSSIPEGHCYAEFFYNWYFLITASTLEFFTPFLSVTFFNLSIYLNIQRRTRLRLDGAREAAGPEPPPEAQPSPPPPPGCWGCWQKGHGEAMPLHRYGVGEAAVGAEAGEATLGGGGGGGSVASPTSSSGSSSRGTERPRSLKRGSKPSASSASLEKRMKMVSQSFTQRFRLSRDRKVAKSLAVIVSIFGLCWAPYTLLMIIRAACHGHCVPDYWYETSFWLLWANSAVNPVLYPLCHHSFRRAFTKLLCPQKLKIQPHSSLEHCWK
T3 sequence (P31645 whole entry): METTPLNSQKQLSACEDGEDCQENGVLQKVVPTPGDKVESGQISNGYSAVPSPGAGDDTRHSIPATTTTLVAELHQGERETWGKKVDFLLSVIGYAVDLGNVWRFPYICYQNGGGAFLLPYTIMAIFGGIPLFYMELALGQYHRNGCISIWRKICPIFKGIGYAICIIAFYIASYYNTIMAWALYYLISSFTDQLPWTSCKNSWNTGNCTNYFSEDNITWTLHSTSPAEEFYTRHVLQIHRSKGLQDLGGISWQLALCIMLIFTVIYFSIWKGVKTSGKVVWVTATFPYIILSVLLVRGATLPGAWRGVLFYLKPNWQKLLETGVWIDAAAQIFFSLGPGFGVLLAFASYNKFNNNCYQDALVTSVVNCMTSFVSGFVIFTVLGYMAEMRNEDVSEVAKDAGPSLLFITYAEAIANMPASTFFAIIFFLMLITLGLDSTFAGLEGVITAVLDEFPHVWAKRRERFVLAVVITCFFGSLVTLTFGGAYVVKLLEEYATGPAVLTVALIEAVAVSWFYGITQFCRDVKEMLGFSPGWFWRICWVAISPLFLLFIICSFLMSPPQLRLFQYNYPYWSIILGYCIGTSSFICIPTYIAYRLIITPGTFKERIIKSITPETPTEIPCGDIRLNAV
T2 sequence (P31652 whole entry): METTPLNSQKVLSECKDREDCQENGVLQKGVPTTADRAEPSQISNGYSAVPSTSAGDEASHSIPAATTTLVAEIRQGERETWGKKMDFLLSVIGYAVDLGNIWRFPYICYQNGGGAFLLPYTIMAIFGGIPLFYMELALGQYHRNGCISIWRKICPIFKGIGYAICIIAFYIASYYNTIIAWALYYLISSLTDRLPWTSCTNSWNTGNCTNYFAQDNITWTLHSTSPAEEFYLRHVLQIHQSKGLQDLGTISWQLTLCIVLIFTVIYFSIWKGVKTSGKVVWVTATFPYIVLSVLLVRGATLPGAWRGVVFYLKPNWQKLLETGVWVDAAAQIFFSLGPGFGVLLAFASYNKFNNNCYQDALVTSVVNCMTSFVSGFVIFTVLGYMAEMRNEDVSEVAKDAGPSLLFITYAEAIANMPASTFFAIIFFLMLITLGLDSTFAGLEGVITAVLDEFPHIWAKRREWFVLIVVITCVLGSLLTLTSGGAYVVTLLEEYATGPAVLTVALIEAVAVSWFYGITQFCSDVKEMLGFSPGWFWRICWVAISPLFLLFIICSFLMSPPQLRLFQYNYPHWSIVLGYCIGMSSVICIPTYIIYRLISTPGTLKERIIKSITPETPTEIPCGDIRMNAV

Row | Kb (human H3 receptor [1]; [3]) [nM] | Ki (Rat SERT; read-out: Rat SERT Ki) [nM] | Ki (human SERT) [nM] | Ki (human H3 receptor [2]) [nM] | Structure (SMILES) | Kb (human H3 receptor [1]; pA2, SK-N-MC cells expressing human H3 receptor and CRE-β-galactosidase reporter) [nM] | Ki (Rat SERT; Rat SERT Ki (nM)) [nM]
1 | 1 | 4 | 3 | 2 | COc1ccc(C2CN(C)Cc3cc(OCCCN4CCCC(O)C4)ccc32)cc1 (mixture of isomers) [Example 20, 1-{3-[4-(4-Methoxy-phenyl)-2-methyl-1,2,3,4-tetrahydro-isoquinolin-7-yloxy]-propyl}-piperidin-3-ol] | – | –
2 | 6.31 | 5 | – | 10 | CSc1ccc(C2CN(C)Cc3cc(OCC4CN(C(C)C)CCO4)ccc32)cc1 (mixture of isomers) [Example 262, 7-(4-Isopropyl-morpholin-2-ylmethoxy)-2-methyl-4-(4-methylsulfanyl-phenyl)-1,2,3,4-tetrahydro-isoquinoline] | – | –
3 | 7.94 | 11 | – | 11 | CSc1ccc(C2CN(C)Cc3cc(OCC4CN(C5CC5)CCO4)ccc32)cc1 (mixture of isomers) [Example 263, 7-(4-Cyclopropyl-morpholin-2-ylmethoxy)-2-methyl-4-(4-methylsulfanyl-phenyl)-1,2,3,4-tetrahydro-isoquinoline] | – | –
4 | 6.31 | 8 | 6 | 9 | COc1ccc(C2CN(C)Cc3cc(OCCCN4CCC(C#N)CC4)ccc32)cc1 (racemic) [Example 37, 1-{3-[4-(4-Methoxy-phenyl)-2-methyl-1,2,3,4-tetrahydro-isoquinolin-7-yloxy]-propyl}-piperidine-4-carbonitrile] | – | –
5 | 0.794 | 4 | 7 | 2 | COc1cccc(C2CN(C)Cc3cc(OCCCN4CCC(F)CC4)ccc32)c1 (racemic) [Example 44, 7-[3-(4-Fluoro-piperidin-1-yl)-propoxy]-4-(3-methoxyphenyl)-2-methyl-1,2,3,4-tetrahydro-isoquinoline] | – | –
6 | 5.01 | 4 | 6 | 6 | COc1ccc(C2CN(C)Cc3cc(OCCCN4CCC(C#N)CC4)ccc32)cc1 (single isomer, unassigned) [Example 37B, 1-{3-[4-(4-Methoxy-phenyl)-2-methyl-1,2,3,4-tetrahydro-isoquinolin-7-yloxy]-propyl}-piperidine-4-carbonitrile] | – | –
7 | 3.16 | 91 | – | 2 | CN1Cc2cc(OCCCN3CCOCC3)ccc2C(c2ccc([S+](C)[O-])cc2)C1 (single isomer, unassigned) [Example 165A, 4-(4-Methanesulfinyl-phenyl)-2-methyl-7-(3-morpholin-4-yl-propoxy)-1,2,3,4-tetrahydro-isoquinoline] | – | –
8 | 5.01 | 12 | – | 7 | COc1ccc(C2CN(C)Cc3cc(OC[C@H]4CN(C(C)C)CCO4)ccc32)cc1 (single isomer, unassigned) [Example 256A, 7-(4-Isopropyl-morpholin-2R-ylmethoxy)-4-(4-methoxy-phenyl)-2-methyl-1,2,3,4-tetrahydro-isoquinoline] | – | –
9 | 1 | 17 | – | 2 | COc1ccc(C2CN(C)Cc3cc(OC[C@@H]4CN(C5CC5)CCO4)ccc32)cc1 (single isomer, unassigned) [Example 260A, 7-(4-Cyclopropyl-morpholin-2S-ylmethoxy)-4-(4-methoxy-phenyl)-2-methyl-1,2,3,4-tetrahydro-isoquinoline] | – | –
10 | 31.6 | 8 | – | 9 | CN1Cc2cc(OCCCN3CCC(F)CC3)ccc2C(c2ccc(Cl)c(Cl)c2)C1 (stereo not shown) [Example 58, 4-(3,4-Dichloro-phenyl)-7-[3-(4-fluoro-piperidin-1-yl)-propoxy]-2-methyl-1,2,3,4-tetrahydro-isoquinoline] | – | –
11 | 0.794 | 9 | – | 1 | COc1ccc(C2CNCc3cc(OCCCN4CCCCC4)ccc32)cc1 (stereo not shown) [Example 69, 4-(4-Methoxy-phenyl)-7-(3-piperidin-1-yl-propoxy)-1,2,3,4-tetrahydro-isoquinoline] | – | –
12 | 1 | 83 | – | 2 | COc1ccc(C2CN(C3CC3)Cc3cc(OCCCN4CCCCC4)ccc32)cc1 (stereo not shown) [Example 73, 2-Cyclopropyl-4-(4-methoxy-phenyl)-7-(3-piperidin-1-yl-propoxy)-1,2,3,4-tetrahydro-isoquinoline] | – | –
13 | 6.31 | 7 | – | 8 | CCCN1CCC(COc2ccc3c(c2)CN(C)CC3c2ccc(OC)cc2)CC1 (stereo not shown) [Example 85, 4-(4-Methoxy-phenyl)-2-methyl-7-(1-propyl-piperidin-4-ylmethoxy)-1,2,3,4-tetrahydro-isoquinoline] | – | –
14 | 10 | 18 | – | 9 | COc1ccc(C2CNCc3cc(OCCCN4CCC(F)CC4)ccc32)cc1 (stereo not shown) [Example 147, 7-[3-(4-Fluoro-piperidin-1-yl)-propoxy]-4-(4-methoxy-phenyl)-1,2,3,4-tetrahydro-isoquinoline] | – | –
15 | 10 | 6 | – | 11 | CN1Cc2cc(OCCCN3CCC(F)CC3)ccc2C(c2ccc(Br)cc2)C1 (stereo not shown) [Example 213, 4-(4-Bromo-phenyl)-7-[3-(4-fluoro-piperidin-1-yl)-propoxy]-2-methyl-1,2,3,4-tetrahydro-isoquinoline] | – | –
16 | 15.8 | 3 | – | 5 | CSc1ccc(C2CN(C)Cc3cc(OCC4CN(C5CC5)C4)ccc32)cc1 (stereo not shown) [Example 237, 7-(1-Cyclopropyl-azetidin-3-ylmethoxy)-2-methyl-4-(4-methylsulfanyl-phenyl)-1,2,3,4-tetrahydro-isoquinoline] | – | –
17 | 12.6 | 4 | – | 5 | CSc1ccc(C2CN(C)Cc3cc(OCC4CN(C5CCC5)C4)ccc32)cc1 (stereo not shown) [Example 238, 7-(1-Cyclobutyl-azetidin-3-ylmethoxy)-2-methyl-4-(4-methylsulfanyl-phenyl)-1,2,3,4-tetrahydro-isoquinoline] | – | –
18 | 1.58 | 13 | – | 2 | COc1ccc(C2CN(C)Cc3cc(OCCCN4CCCCC4)c(C)cc32)cc1 (stereo not shown) [Example 265, 4-(4-Methoxy-phenyl)-2,6-dimethyl-7-(3-piperidin-1-yl-propoxy)-1,2,3,4-tetrahydro-isoquinoline] | – | –
19 | – | 37 | 13 | 45 | COc1ccc(C2CN(C)Cc3cc(C#CCCN4CCSCC4)ccc32)cc1 (stereo not shown) [Example 277, 4-(4-Methoxy-phenyl)-2-methyl-7-(4-thiomorpholin-4-yl-but-1-ynyl)-1,2,3,4-tetrahydro-isoquinoline] | – | –
20 | – | 5 | 9 | 315 | COc1ccc(C2CN(C)Cc3cc(C#CCCN4CCN(C(C)C)CC4)ccc32)cc1 (stereo not shown) [Example 278, 7-[4-(4-Isopropyl-piperazin-1-yl)-but-1-ynyl]-4-(4-methoxy-phenyl)-2-methyl-1,2,3,4-tetrahydro-isoquinoline] | – | –
21 | – | 4 | 13 | 96 | COc1ccc(C2CN(C)Cc3cc(CCCCN4CCC(F)(F)CC4)ccc32)cc1 (stereo not shown) [Example 280, 7-[4-(4,4-Difluoro-piperidin-1-yl)-butyl]-4-(4-methoxy-phenyl)-2-methyl-1,2,3,4-tetrahydro-isoquinoline] | – | –
22 | – | 6 | 8 | 23 | COc1ccc(C2CN(C)Cc3cc(CCCCN4CCOCC4)ccc32)cc1 (stereo not shown) [Example 281, 4-(4-Methoxy-phenyl)-2-methyl-7-(4-morpholin-4-yl-butyl)-1,2,3,4-tetrahydro-isoquinoline] | – | –
23 | – | 6 | 17 | 25 | COc1ccc(C2CN(C)Cc3cc(CCCCN4CCSCC4)ccc32)cc1 (stereo not shown) [Example 282, 4-(4-Methoxy-phenyl)-2-methyl-7-(4-thiomorpholin-4-yl-butyl)-1,2,3,4-tetrahydro-isoquinoline] | – | –
24 | – | 4 | 7 | 13 | COc1ccc(C2CN(C)Cc3cc(CCCCN4CCN(C(C)C)CC4)ccc32)cc1 (stereo not shown) [Example 283, 7-[4-(4-Isopropyl-piperazin-1-yl)-butyl]-4-(4-methoxy-phenyl)-2-methyl-1,2,3,4-tetrahydro-isoquinoline] | – | –

Row | Structure (SMILES) | Kb (human H3 receptor [1]; [3]) [nM] | Ki (Rat SERT; read-out: Rat SERT Ki) [nM] | Ki (human SERT) [nM] | Ki (human H3 receptor [2]) [nM] | Kb (human H3 receptor [1]; pA2, SK-N-MC cells expressing human H3 receptor and CRE-β-galactosidase reporter) [nM] | Ki (Rat SERT; Rat SERT Ki (nM)) [nM]
25 | CN1Cc2cc(OCCCN3CCC(F)CC3)ccc2C(c2cc(Cl)ccc2Cl)C1 (stereo not shown) [Example 55, 4-(2,5-Dichloro-phenyl)-7-[3-(4-fluoro-piperidin-1-yl)-propoxy]-2-methyl-1,2,3,4-tetrahydro-isoquinoline] | – | – | – | 8 | 5.01 | 209
